Laboratory results reported in patent US20160304477A1 (LAguna Pharmaceuticals, Inc., priority 2013, published 2016).
Read-outs that look alike come from different tables or passages of the source.

What was measured:
[1] = Plasma concentrations of vanoxerine and its hydroxyl metabolites in patients after a 300 mg dose of vanoxerine (LC-MS/MS); type: in vivo, human; conditions: 300 mg vanoxerine; for Concentrations (plasma), average: all 25 patients; for High concentration group average (plasma concentration): high concentration group (10 patients); for Low concentration group average (plasma concentration): low concentration group (15 patients)
Procedure: Each patient gave blood samples before administration of their dose, and then again at nine further time points, 30 minutes after admiration, 1, 2, 3, 4, 6, 8, 12, and 24 hours post administration.
Samples: A total of 270 human plasma samples were received (in duplicate). The samples were shipped frozen over dry ice. The samples were stored at −70° C. (nominal) until analysis.
Frozen samples were thawed at room temperature. Samples, calibrators, QC samples, sample blanks (blank plasma) and reagent blanks (water) were processed at room temperature. To 200 μL aliquots of each sample, calibrator, and QC sample are added 20 μL of 500 ng/mL of internal standard solution. A sample blank (blank plasma) and reagent blank (water) were also prepared, but without addition of internal standard solution (20 μL of diluent was added instead). To each sample, 200 μL of 1% ammonium hydroxide solution were added and vortex mixed. 3.0 mL of methyl tert-butyl ether were added and then vortex mix for 30 seconds. The sample is then centrifuged for 5 minutes at 4000 rpm and then transferred for about 30 minutes at −70° C. (nominal). The upper (organic) layer was transferred into an evaporation tubes and then evaporated under N2 stream at ˜50° C. for about 20 min. Samples were then reconstituted in 1000 μL reconstitution solution (80:20:0.1 water: acetonitrile: formic acid). Samples were mixed, allow to stand for about 3 minutes and mixed again. 900 μL of the sample solution was transferred to a 1.5 mL microcentrifuge tube and centrifuged for 5 minutes at 14000 rpm at room temperature. 800 μL of the sample solution was transferred to a glass autosampler vial, and then transferred to the autosampler for analysis. Samples were separated using reversed-phase liquid chromatography with a C18 column.
Detection was based on electro-spray interface in positive mode (ESI+) LC-MS/MS technique, using Micromass Quattro Premier XE MS/MS detector with MassLynx and QuanLynx software version 4.1. […] The MRM transition for all hydroxyl metabolites was m/z 467→203.

[2] = healthy subjects, cited from earlier work
[3] = 1 h post administration, 1.00 = below LLOQ
[4] = 2 h post administration, 1.00 = below LLOQ
[5] = 3 h post administration, 1.00 = below LLOQ
[6] = 4 h post administration, 1.00 = below LLOQ
[7] = 6 h post administration, 1.00 = below LLOQ
[8] = 8 h post administration, 1.00 = below LLOQ
[9] = 12 h post administration, 1.00 = below LLOQ
[10] = 24 h post administration, 1.00 = below LLOQ
[11] = .5 h post administration, 1.00 = below LLOQ
[12] = time -15 (before administration), 1.00 = below LLOQ

Concentrations (plasma), average [1, 3] [ng/mL]	Concentrations (plasma), average [1, 4] [ng/mL]	Concentrations (plasma), average [1, 5] [ng/mL]	Concentrations (plasma), average [1, 6] [ng/mL]	Concentrations (plasma), average [1, 7] [ng/mL]	Concentrations (plasma), average [1, 8] [ng/mL]	Concentrations (plasma), average [1, 9] [ng/mL]	Concentrations (plasma), average [1, 10] [ng/mL]	Concentrations (plasma), average [1, 11] [ng/mL]	Concentrations (plasma), average [1, 12] [ng/mL]	High concentration group average (plasma concentration) [1, 3] [ng/mL]	High concentration group average (plasma concentration) [1, 4] [ng/mL]	High concentration group average (plasma concentration) [1, 5] [ng/mL]	High concentration group average (plasma concentration) [1, 6] [ng/mL]	High concentration group average (plasma concentration) [1, 7] [ng/mL]	High concentration group average (plasma concentration) [1, 8] [ng/mL]	High concentration group average (plasma concentration) [1, 9] [ng/mL]	High concentration group average (plasma concentration) ([1]; 24 h post administration) [ng/mL]	High concentration group average (plasma concentration) [1, 11] [ng/mL]	High concentration group average (plasma concentration) [1, 12] [ng/mL]	Molecule	also measured
1.02	1.02	1.01	1.01	1.00	1.00	1.00	1.00	1.00	1.00	1.00	1.05	1.03	1.02	1.00	1.00	1.00	0.00	1.00	1.00	16-hydroxyl vanoxerine [M02]	Low concentration group average (plasma concentration) [1, 3]: 1.03 ng/mL; Low concentration group average (plasma concentration) [1, 4]: 1.00 ng/mL; Low concentration group average (plasma concentration) [1, 5]: 1.00 ng/mL; Low concentration group average (plasma concentration) [1, 6]: 1.00 ng/mL; Low concentration group average (plasma concentration) [1, 7]: 1.00 ng/mL; Low concentration group average (plasma concentration) [1, 8]: 1.00 ng/mL; Low concentration group average (plasma concentration) [1, 9]: 1.00 ng/mL; Low concentration group average (plasma concentration) [1, 10]: 1.00 ng/mL; Low concentration group average (plasma concentration) [1, 11]: 1.00 ng/mL; Low concentration group average (plasma concentration) [1, 12]: 1.00 ng/mL
7.51	19.65	18.68	16.42	11.48	8.98	6.30	3.66	1.93	1.00	8.64	28.00	29.64	24.93	18.08	14.50	9.98	1.72	2.55	1.00	17-hydroxyl vanoxerine [M01]	Low concentration group average (plasma concentration) [1, 3]: 6.76 ng/mL; Low concentration group average (plasma concentration) [1, 4]: 14.09 ng/mL; Low concentration group average (plasma concentration) [1, 5]: 11.38 ng/mL; Low concentration group average (plasma concentration) [1, 6]: 10.34 ng/mL; Low concentration group average (plasma concentration) [1, 7]: 7.08 ng/mL; Low concentration group average (plasma concentration) [1, 8]: 5.30 ng/mL; Low concentration group average (plasma concentration) [1, 9]: 3.67 ng/mL; Low concentration group average (plasma concentration) [1, 10]: 2.66 ng/mL; Low concentration group average (plasma concentration) [1, 11]: 1.52 ng/mL; Low concentration group average (plasma concentration) [1, 12]: 1.00 ng/mL
–	–	–	–	–	–	–	–	–	–	–	–	–	–	–	–	–	–	–	–	Fc1ccc(C(OCCN2CCN(CCCc3ccccc3)CC2)c2ccc(F)cc2)cc1 [Vanoxerine, 1-[2-[bis(4-fluorophenyl)methoxy]ethyl]-4-(3-phenylpropyl)piperazine]	side-effects ([2]; daily repetitive dose of 50 mg): no side-effects should be expected; side-effects ([2]; higher doses of vanoxerine): some effects were seen with regard to concentration difficulties, increase systolic blood pressure, asthenia, and a feeling of drug influence
